Test results from article PMC7707092, “Discovery and characterization of ORM‐11372, a novel inhibitor of the sodium‐calcium exchanger with positive inotropic activity” (British Journal of Pharmacology, 2020).
Values after ≈ are worked out from the molar mass of the structure shown. Read-outs that look alike come from different tables or passages of the source.

Legend:
human NCX 1.1 = molecular target: T1, human NCX 1.1 (Homo sapiens, UniProt P32418); experiment: Fluorescence screening assay for hNCX 1.1 inhibition (reverse mode, Sf9 cells); format: cell-based; details: for IC50: Sf9 cells expressing human NCX1.1, reverse mode, fluorescence, n=3 assays
T1 construct: expressed in transfected cells
Procedure: Spodoptera frugiperda (Sf9; RRID:CVCL_0549) cells are widely used for the transient and stable expression of recombinant proteins. Here, Sf9 cells were stably transfected with human NCX 1.1 and maintained in spinner flasks with insect cell culture medium (TNM‐FH), supplemented with 10% FBS, antibiotic–antimycotic solution, and 50 μg·ml^−1 of blasticidin at 28°C in a non‐humidified, CO2‐free atmosphere. The Sf9 cell suspension was subcultured three times a week.
NCX reverse mode activity was stimulated via a 50% dilution of the extracellular Na^+ level using the internal pipettor of FLEXstation, a fluorescence imaging plate reader (Molecular Devices, USA), while simultaneously monitoring intracellular calcium levels. After dilution, the concentration of other ions remained the same, but Na^+ concentration was diluted to the half of original concentration of 172 to 86 mM. For Sf9 insect cells, normal extracellular Na^+ ion concentration is 172 mM. Typically, 50 μl of a solution containing 150,000–200,000 Sf9–NCX cells was loaded onto each well of a 96‐well plate. Cells were preincubated with the intracellular calcium dye Fluo‐4 and Fluo‐6, and the concentrations of the test compound (three replicates) were determined for about 1 h at room temperature before experimentation. The extracellular solution contained (in mM) 172 NaCl, 10 HEPES, 1 CaCl2, 1.2 MgCl2, 0.33 NaH2PO4, 5 glucose, and 5 probenecid. The pH was adjusted to 7.4 with NaOH. The extracellular Na^+ was diluted by the addition of a Na^+‐free extracellular solution (containing in mM: 147 N‐methyl‐D‐glucamine (NMDG), 10 HEPES, 1 CaCl2, 1.2 MgCl2, 0.33 NaH2PO4, and 5 glucose with the pH adjusted by HCl to 7.4)‐induced robust and reproducible elevation of intracellular calcium. The osmolarity of both solutions was adjusted to 340–355 mOsm in order to match the Sf9 cell media osmolarity. In each plate, the IC50 determination for each test compound was based on relative fluorescence changes in comparison with control and 5‐mM nickel acetate‐induced NCX inhibition.

hNCX1 = hNCX1 (Homo sapiens, UniProt P32418); experiment: Confirmatory fluorescence assay for hNCX1 inhibition (forward mode, HEK293 cells, Charles River); format: cell-based; details: HEK293, forward mode, Table S2; read-out: hNCX1-HEK IC50
Procedure: A confirmatory hNCX1 inhibition assay was performed in Charles River Laboratories, Cleveland. Briefly, HEK293 cells stably expressing hNCX1 were plated in 384‐well black wall, clear‐bottom microtitre plates and the next day loaded with Fluo‐8 for 30 min at 37°C. A plate was inserted into a FLIPR^TETRA, and a baseline was recorded during a preincubation period where test compound or vehicle in a Na^+‐free HB‐PS containing thapsigargin (6 μM) and […] (30 μM) was added to each well for ~5 min. Next, the NCX1 stimulation period was recorded in which Na^+‐containing HB‐PS (with 2‐μM thapsigargin and 10‐μM FCCP) was added. The experiments were performed at room temperature. The kinetic data generated were reduced for each well to maximum relative fluorescence units (RFU) minus minimum RFU after subtracting bias based on the first sample. The mean of the max–min RFU values during the stimulation period for the 3–4 replicates at each concentration on a plate was then plotted versus concentration and fitted to a Hill equation.

Solubility = format: physicochemical; details: pH 7.4 phosphate buffer; for solubility: phosphate buffer, pH 7.4, aqueous buffer
NCX = system: NCX; set-up: method as in Jost et al., 2013; Kohajda et al., 2016; details: Dog, reference not given, ref Jost et al., 2013, Kohajda et al., 2016, cited from earlier work
L‐type calcium channel = L‐type calcium channel inhibition, fluorescence assay in IMR‐32 cells; format: cell-based, human; details: KCl depolarization, n=4 assays, read-out: L‐type Ca^2+ IC50
Procedure: CHO cells stably expressing either hERG1a (KV11.1) channels (KCNH2; RRID:CVCL_H512) or human 5‐HT2B receptors were cultured at 37°C in a 5% CO2/95% air atmosphere in the Ham's Nutrient Mixture F‐12 (HAM F‐12) medium supplemented with 10% FBS (heat inactivated), 100 μg·ml^−1 of hygromycin B (Invitrogen), and 100 μg·ml^−1 of geneticin or 100 IU·ml^−1 of penicillin and 100 IU·ml^−1 of streptomycin, 25‐mM HEPES, 500 μg·ml^−1 of geneticin, and 250 μg·ml^−1 of Zeocin®. Adhered cells were detached using either Detachin® solution or trypsin and replated twice a week. HEK 293 (RRID:CVCL_0045) and IMR‐32 cells (CCL‐127; RRID:CVCL_0346) were cultured similarly but maintained instead in DMEM, supplemented with 10% FBS (heat inactivated), 100 IU·ml^−1 of penicillin and 100 IU·ml^−1 of streptomycin, and 25‐mM HEPES, and in the case of the IMR‐32 cell line, with minimum essential medium (MEM) non‐essential amino acids. IMR‐32 cells are derived from a human neuroblastoma and endogenously express L‐type (CaV1.x) calcium channel (Sher, Gotti, Pandiella, Madeddu, & Clementi, 1988).
Undifferentiated IMR‐32 cells were harvested, centrifuged, and resuspended in a probenecid‐Ringer solution consisting (in mM) 150 NaCl, 3 KCl, 1.2 MgCl2, 1 CaCl2, 20 HEPES, 5 glucose and 2.5 probenecid (pH 7.4 adjusted with NaOH, osmolarity 320–324 mOsm). We added 0.04% Pluronic F‐127 and Fluo‐4 to this solution, and after incubating the cells for 30 min at room temperature, these additives were removed from the probenecid‐Ringer solution by centrifugation and resuspension. The cell suspension was pipetted (250,000 cells in 75 μl per well) into a 96‐well plate, into which the test compound (75 μl per well at […] the final concentration; five concentrations with eight replicates) had already been added. The plate was centrifuged once (5 min, at 287 x g) to ensure that the cells were moved to the bottom of the wells. FLEXstation was then used to measure the increase in intracellular calcium at 37°C, following depolarization, which was induced by the addition (50 μl per well) of a KCl‐Ringer solution containing (in mM) 200 KCl, 20 CaCl2, 1.2 MgCl2, 20 HEPES and 2.5 probenecid respectively (pH adjusted to 7.4 with KOH, with an osmolarity of 320–324 mOsm).

hERG = hERG (Homo sapiens, UniProt Q12809); experiment: hERG IC50 of Table 1 / Table S2 (method not assigned); format: cell-based; details: n=4 assays
Chain of hERG (Q12809 whole entry): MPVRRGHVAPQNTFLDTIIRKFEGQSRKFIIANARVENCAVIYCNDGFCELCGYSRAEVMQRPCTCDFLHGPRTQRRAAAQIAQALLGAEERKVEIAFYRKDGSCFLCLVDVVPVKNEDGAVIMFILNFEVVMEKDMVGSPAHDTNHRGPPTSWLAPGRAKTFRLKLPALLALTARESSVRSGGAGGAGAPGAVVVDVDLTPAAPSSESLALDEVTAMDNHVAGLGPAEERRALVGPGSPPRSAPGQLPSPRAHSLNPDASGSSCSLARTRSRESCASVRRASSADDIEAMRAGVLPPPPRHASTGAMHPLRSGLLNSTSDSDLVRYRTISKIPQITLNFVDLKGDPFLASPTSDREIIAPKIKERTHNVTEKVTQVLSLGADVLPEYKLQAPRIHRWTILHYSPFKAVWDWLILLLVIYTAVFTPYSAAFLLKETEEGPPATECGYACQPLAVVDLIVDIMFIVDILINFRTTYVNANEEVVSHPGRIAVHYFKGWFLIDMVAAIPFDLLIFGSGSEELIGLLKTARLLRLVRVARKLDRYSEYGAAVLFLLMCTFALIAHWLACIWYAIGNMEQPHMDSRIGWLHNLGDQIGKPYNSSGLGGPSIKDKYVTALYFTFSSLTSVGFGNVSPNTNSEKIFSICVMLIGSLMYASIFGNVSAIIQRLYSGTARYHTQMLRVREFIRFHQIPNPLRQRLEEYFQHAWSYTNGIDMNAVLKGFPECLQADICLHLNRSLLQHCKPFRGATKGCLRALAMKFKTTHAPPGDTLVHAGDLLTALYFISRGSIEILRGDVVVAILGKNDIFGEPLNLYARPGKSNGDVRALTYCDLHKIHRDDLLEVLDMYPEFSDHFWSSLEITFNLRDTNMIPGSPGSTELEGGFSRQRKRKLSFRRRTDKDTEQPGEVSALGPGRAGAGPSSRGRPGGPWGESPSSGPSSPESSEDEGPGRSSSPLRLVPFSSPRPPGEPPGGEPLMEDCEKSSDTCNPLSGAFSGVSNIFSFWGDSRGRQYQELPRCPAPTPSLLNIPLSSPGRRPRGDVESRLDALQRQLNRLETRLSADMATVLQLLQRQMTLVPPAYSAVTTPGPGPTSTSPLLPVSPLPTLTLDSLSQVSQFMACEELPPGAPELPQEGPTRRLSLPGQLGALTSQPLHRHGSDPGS

healthy rats = experiment: In vivo haemodynamics in healthy rats (supplement); set-up: species or system rat
Source text: In vivo haemodynamics in healthy rats
Experimental Animals and General Study Protocol
Rat was selected to the study as it is the most widely used rodent species in the toxicology studies performed for the small molecules during the drug development. […]
All animal experiments were made according to European Community Guidelines for the use of experimental animals and approved by Finnish National Animal Experiment Board. All studies complied with the ARRIVE guidelines, (NC3Rs Reporting Guidelines Working Group, 2010).
Specific pathogen free animals were housed in half -barrier rooms where special protecting clothing for personnel was required. Animal rooms were cleaned regularly 3 times per week and cages and bottles were […]
changed regular intervals once a week. Temperature was maintained at 22 ± 2°C and humidity at 55 ± 15%.
Light-dark cycle was lights on from 06.00 to 20.00h.
Male Sprague-Dawley rats (Harlan, Netherlands B.V.) were housed in polycarbonate cages (Makrolon® IV with stainless steel wire mesh lids). Maximally 5 rats were housed per cage with aspen chip bedding (Tapvei Ky, Kaavi, Finland). Rats had free access to water (twice filtered, Espoon Vesi) and rodent diet (SDS RM1
(P) SQC pelleted diet, Special Diet Services Ltd, Witham, England). Acclimation period before experiments was at least 5 days. Healthy 10-12 weeks aged weighing 300-400 g rats were randomized to ORM-11372, dobutamine or vehicle group.
At the end of the haemodynamic experiments, rats were terminated with an overdose of pentobarbital.
Anesthesia and ventilation
Rats were anaesthetised with isoflurane (2.25-2.5 %, Baxter) in carbogen (95 % O2 and 5 % CO2) and nitrous oxide (1:1) using a small rodent ventilator (Ugo Basile 7025, ~10 ml/kg, 60 strokes/min). The rats were infused with 0.9 % NaCl in […] at the stabilization and baseline level. Animals were placed on a heating table (+38°C). Tracheas were cannulated.
Systemic blood (SP) and left ventricular pressures (LVP) were measured with pressure transducers (BP:
Isotec, Hugo Sachs Elektronic, Germany; LVP: Mikro-Tip transducer SPR-249, Millar Instruments, USA). The signal was amplified (DC-bridge amplifier type 660, Hugo Sachs Elektronik, Germany), digitised (I/O connector block type SCB-68, National Instruments, USA), recorded and analysed (IHME 1.0.9, Fision Ltd, Finland). Left ventricular inotropic effect (LV +dP/dtmax) and relaxation (LV -dP/dtmin) and heart rate (HR) were analysed from LVP signal.
Blood sampling for the evaluation of plasma levels of the drug
At the end of each infusion, the blood samples (300-500 µl) were taken into chilled EDTA polypropylene tube (CapiJect®, Terumo) and centrifuged (4000 rpm, 10 min, at 4°C). Plasma was immediately frozen in polypropylene tubes and stored at –20°C. ORM-11372 and dobutamine were extracted from plasma samples using a liquid–liquid extraction and analysed using liquid chromatography–tandem mass spectrometry (Agilent Technologies series 1100 liquid chromatographic system and a Sciex LC-MS/MS API 4000 mass spectrometry). The lower limit of quantification for total plasma concentrations were 32.0 and 5.00 ng/ml from total for ORM-11372 and dobutamine, respectively. […]
The effects of dobutamine on blood pressure varies partially due to the use of racemate as active ingredient in the pharmaceutical formulation. (-)-dobutamine is α1-agonist and therefore causes increases in cardiac output and peripheral resistance. (+)-dobutamine acts via β1- and β2-adrenoceptors which leads to increase in heart rate and reduction in blood pressure 16.
Figure S20 Haemodynamics in healthy rats
Effects of ORM-11372 and dobutamine on haemodynamics in isoflurane anesthetized 10-12 weeks aged male Sprague-Dawley rats (Harlan, Netherlands B.V.) weighing 300-400 g. Shown are mean ± SEM and individual effects on the left ventricular contractility (LV+dP/dtmax, panel A), relaxation (LV-dP/dtmax, panel B), heart rate (panel C), and systolic arterial blood pressure (SAP, paned D). […]

SMILES | IC50 (human NCX 1.1) | IC50 (hERG) | solubility (Solubility; read-out: Solubility class) | further results
O=[N+]([O-])c1ccc(Oc2ccc3c(c2)CCC(c2ccccc2)O3)nc1 (stereo not shown) [ORM-10103] | 176 nM |  |  | IC50 (hNCX1): 1850 nM; Solubility class (Solubility): Insoluble (insoluble less than 10 µg/ml); IC50 (NCX; read-out: IC50 NCX forward): 960 nM; IC50 (NCX; read-out: IC50 NCX reverse): 780 nM
O=[N+]([O-])c1cccc(-c2ccc(CNc3ccc(F)c(Cl)c3)o2)c1 [ORM‐11023] | 156 nM |  |  | 
O=[N+]([O-])c1ccccc1-c1ccc(CNc2ccccc2)o1 [ORM‐11024] | 875 nM |  |  | 
Fc1ccc(NCc2ccc(-c3ccccc3Cl)o2)cc1Cl [ORM‐11165] | 4 nM | 9000 nM | < 10 µg/mL | IC50 (L‐type calcium channel): 2000 nM
Fc1ccc(NCc2ccc(-c3ccc(Cl)cc3)o2)cc1Cl [ORM‐11190] | 204 nM |  |  | 
Fc1ccc(NCc2ccc(-c3cccc(Cl)c3)o2)cc1Cl [ORM‐11217] | 210 nM | 14600 nM | 10 to 100 µg/mL (≈ 29.7 to 297 µM) | 
Fc1ccc(NCc2coc(-c3ccccc3)n2)cc1Cl [ORM‐11298] | 31 nM | > 10000 nM | 10 to 100 µg/mL (≈ 33 to 330 µM) | 
Fc1ccc(NCc2ccc(-c3ccccn3)o2)cc1F [ORM‐11817] | 3 nM | 2400 nM | < 10 µg/mL | IC50 (L‐type calcium channel): 10400 nM
Fc1ccc(NCc2csc(-c3ccccc3Cl)n2)cc1F [ORM‐11863] | 2.5 nM |  | < 10 µg/mL | 
Fc1ccc(NCc2ccc(-c3cccnc3)o2)cc1F [ORM‐11875] | 90 nM |  | 10 to 100 µg/mL (≈ 34.9 to 349 µM) | 
O=[N+]([O-])c1ccccc1-c1ccc(CNc2ccc(F)c(Cl)c2)o1 [ORM‐120407, 3-chloro-4-fluoro-N-((5-(2-nitrophenyl)furan-2-yl)methyl)aniline] | 231 nM | 2100 nM | < 10 µg/mL | inhibition at 10 µM (human NCX 1.1; 10 μM, fluorescence‐based assay, read-out: NCX1.1 inhibition): 87%; IC50 (L‐type calcium channel): 3100 nM; solubility (Solubility; read-out: Solubility): < 10 µg/mL
CC(CCc1ccc(O)cc1)NCCc1ccc(O)c(O)c1 (stereo not shown) [dobutamine, reference compound] |  |  |  | absolute maximum positive inotropic effect (healthy rats): 59%; free plasma concentration achieving 25% positive inotropic effect (healthy rats): 25 ± 1.6 nM; free plasma concentration at absolute maximum positive inotropic effect (healthy rats): 199 ± 17 nM; free plasma concentration at the 10±2% (ORM-11372) / 16±3% (dobutamine) inotropic effect (healthy rats): 16 ± 0.8 nM; positive inotropic effect (healthy rats; at free plasma concentration 4±0.3 nM (ORM-11372), 16±0.8 nM (dobutamine)): 16±3%; increase in heart rate (healthy rats; free plasma concentration 96 nM): 15±5%; increase in heart rate (healthy rats; free plasma concentration 848 nM): 25±7%; relaxation (healthy rats; free plasma concentrations 16 to 199 nM): no effects
